From US8110654B2, “T cell epitope peptides of ovarian cancer anti-idiotypic antibody 6B11 and use thereof” (Peking University People;s Hospital, priority 2006, dated 2012)

Assays:
[1] = test system: anti-idiotype antibody 6B11-CTLs (reacting cells); assay: BrdU ELISA cell proliferation assay, 6B11-CTLs stimulated by loaded DCs; format: cell-based, human; details: for proliferation after blocking by MHC class II antibodies: anti-human MHC class II antibodies 1:20 dilution; for proliferation of reacting cells 6B11-CTLs: stimulating DCs loaded with peptide 30 μg/ml or 6B11 40 μg/ml, 120 hours, BrdU, A450
Method: Peripheral blood was drawn from HLA-A2 healthy human subjects. After EDTA anti-coagulation treatment, peripheral blood monocytes were isolated using Ficoll lymphocyte isolation 1×10^7 monocytes/well and AIM-V culture medium (containing 5% human AB serum) was added to 1 ml. The cells were incubated at 37° C. under 5% CO2 for 2 hours. Non-adherent cells were drawn and removed as lymphocytes and stored in liquid nitrogen for further use. The adherent cells were monocytes.
The monocytes isolated from said 6-well plates were added with 2 ml AIM-V culture medium (containing 5% human AB serum)/well. Recombinant human granulocyte-macrophage colony-stimulating factor (rh GM-CSF) and recombinant human interleukin-4 (rh IL-4) were added simultaneously both to a final concentration of 1000 U/ml, for induced incubation. On Day 4, 1 ml AIM-V culture medium (containing 5% human AB serum) was supplemented, and rh GM-CSF and rh IL-4 of the same concentration as mentioned above were also supplemented. On Day 6, 1 ml AIM-V culture medium (containing 5% human AB serum) was supplemented again. At the same time, recombinant human tumor necrosis factor-α (rh TNF-α), recombinant human α-interferon (rh IFN-α) and recombinant human interleukin-6 (rh IL-6) were added, all to a final concentration of 1000 U/ml, and prostaglandin E2 (PGE2) was added to a final concentration of 1 μg/ml. Co-incubation lasted 24 hours for inducing mature DCs.
On Day 4 during incubation of DCs, the culture medium, rh GM-CSF and rh IL-4 were supplemented. At the same time, anti-idiotype antibody 6B11 was added to a final concentration of 40 μg/ml for loading. The loaded cells were stored as stimulating cells for further use.
Mature DCs induced were harvested, washed and adjusted to a concentration of 1×10^6 cells/ml. Six CDR peptides (SEQ ID NOs: 1-6, see Table 1, artificially synthesized) in a final concentration of 30 μg/ml respectively, or each peptide of 30 μg/ml together with keyhole limpet hemocyanin (KLH) of 5 μg/ml were added for loading. The loaded cells were stored as stimulating cells for further use.
The freeze-stored autologous lymphocytes were stimulated by DCs loaded with anti-idiotype antibody 6B11 (anti-Id DCs), to obtain CTLs specific to anti-idiotype antibody 6B11 (6B11-CTLs). One period consists of 7 days. On Day 3 of every period, 10 U/ml recombinant human interleukin-2 (rh IL-2) was supplemented. Finally, anti-idiotype antibody 6B11-CTLs were obtained after a one- or three-period stimulation.
All the CDR peptides of anti-idiotype antibody 6B11 (6 peptides) were synthesized artificially. The peptides were screened for Th epitope peptides by cell proliferation assay. Anti-idiotype antibody 6B11-CTLs stimulated for one period were used as reacting cells. DCs loaded with anti-idiotype antibodies and peptides respectively were used as stimulating cells. The reacting cells and the stimulating cells (in the ratio of 10:1) were co-incubated at 37° C. under 5% CO2 for 120 hours and then subject to BrdU ELISA cell proliferation assay. Each well contained 100 μl AIM-V culture medium and 1×10^5 anti-idiotype antibody 6B11-CTLs. Within the last 2 hours during stimulation, 10 μl BrdU labeling solution was added into each well and the fluid in the wells was removed. The cells were dried at 60° C. for 1 hour. 200 μl of FixDenat solution was added into each well. The reaction continued for 30 minutes at 37° C. for fixing DNA in the lymphocytes. Finally, 100 μl BrdU monoclonal antibody was added into each well for 90 minutes. The absorption value at 450 nm was read by an automatic microplate reader after substrate chromogenic reaction for detecting the proliferation of the cells. The group of DCs without loading and the group of phytohaemagglutinin (PHA) were used as negative and positive control respectively. […] Other peptides could not stimulate the proliferation of the reacting cells. […]

[2] = test system: CD4 T cells; assay: BrdU cell proliferation assay after magnetic bead sorting of CD4 T cells; format: cell-based, human; details: reacting cells sorted for CD4 T cells by magnetic beads
Method: All the CDR peptides of anti-idiotype antibody 6B11 (6 peptides) were synthesized artificially. The peptides were screened for Th epitope peptides by cell proliferation assay. Anti-idiotype antibody 6B11-CTLs stimulated for one period were used as reacting cells. DCs loaded with anti-idiotype antibodies and peptides respectively were used as stimulating cells. The reacting cells and the stimulating cells (in the ratio of 10:1) were co-incubated at 37° C. under 5% CO2 for 120 hours and then subject to BrdU ELISA cell proliferation assay. Each well contained 100 μl AIM-V culture medium and 1×10^5 anti-idiotype antibody 6B11-CTLs. Within the last 2 hours during stimulation, 10 μl BrdU labeling solution was added into each well and the fluid in the wells was removed. The cells were dried at 60° C. for 1 hour. 200 μl of FixDenat solution was added into each well. The reaction continued for 30 minutes at 37° C. for fixing DNA in the lymphocytes. Finally, 100 μl BrdU monoclonal antibody was added into each well for 90 minutes. The absorption value at 450 nm was read by an automatic microplate reader after substrate chromogenic reaction for detecting the proliferation of the cells. The group of DCs without loading and the group of phytohaemagglutinin (PHA) were used as negative and positive control respectively. […] Other peptides could not stimulate the proliferation of the reacting cells.
For further analyzing the proliferation of the cells, stimulating cells were blocked by anti-human MHC class II antibodies, for evaluating the effect of Th epitope peptides. Firstly, the optimal application concentration of MHC class II antibodies was determined by experiments to be 1:20 dilution (FIG. 3). […] Other peptides could not trigger cell proliferation, no matter whether MHC class II antibodies were applied or not (FIG. 4). […] The reacting cells were subject to magnetic bead sorting of CD4 T cells.

Sequence	proliferation after blocking by MHC class II antibodies [1]	proliferation of reacting cells 6B11-CTLs [1]	proliferation of sorted CD4 T cells [2]
IALITTKIAWYFDV (VH CDR3 region peptide) [VH CDR3 peptide]	could be blocked mostly	could stimulate the proliferation	could trigger the proliferation
SQSTHFPYT (VL CDR3 region peptide)	could not be blocked	could stimulate the proliferation	could not trigger the proliferation
